Source: patent US11925633B2, “Drug for preventing and/or treating dementia” (NATIONAL CEREBRAL AND CARDIOVASCULAR CENTER, priority 2016, dated 2024)
Where two headings read alike, the source gives them in different places.

Columns and labels:
[1] = test system: APP-SwDI transgenic mice; assay: Water maze test (Morris water maze, with probe test); format: in vivo, mouse; details: 8-month-old mice; for residence time in Zone-1 in the probe test (visuospatial memory): fifth day, platform removed, 60 seconds; for swimming time to reach the platform (visuospatial memory): first day to fourth day, 4 trials per day
Procedure: The cilostazol-containing feed, the taxifolin-containing feed, and the feed containing cilostazol and taxifolin were administered from 4-week-old to 8-month-old. The concentration of cilostazol in the cilostazol-containing feed was 0.3 wt %, and the concentration of taxifolin in the taxifolin-containing feed was 3 wt %. The concentration of cilostazol and the concentration of taxifolin in the feed containing cilostazol and taxifolin were respectively 0.3 wt % and 3 wt %. All the APP-SwDI transgenic mice used were homozygous male mice. The water maze test is a test for evaluating the visuospatial cognitive ability of mouse by utilizing the habit of avoiding water and escaping therefrom. The water maze used in this experiment was Morris water maze manufactured by Brain Science Idea, having a circular pool of a water tank entirely painted black with inner diameter 120 cm, wall height 30 cm. One transparent acrylic circular platform for escape with diameter 10 cm, height 10 cm was set at 30 cm from the center of the pool and 30 cm from the periphery. Clues such as poster, photograph and the like were arranged on the wall so that the mice could memorize various spatial arrangements in the surroundings, and the locations of these clues were always unchanged during the experiment. The pool was filled with water to a depth of 11 cm, and a platform was installed at about 1 cm below the water surface as in FIG. 3(A). In all tests, Zone-2 in FIG. 3(B) was set as a start position. Zone-1 to Zone-4 show quadrant regions in the circular pool. The mice were gently placed on the water surface while facing the wall of the pool so that they could not see the location of the platform. The tests were performed from the first day to the fourth day, 4 trials per day. In each trial, the total swimming distance and the time required for reaching the platform (swimming time) were measured. […] On the fifth day, the mice were made to swim for 60 seconds with the platform removed from the pool (probe test). In the test, the residence time in Zone-1 where the goal was placed from the first day to the fourth day was measured. […] Error bars show standard error. […] Error bars show standard error.

[2] = test system: APP-SwDI transgenic mice; details: compared to APP-SwDI mice on control feed; non-patent document 3; cited from earlier work
[3] = administration of cilostazol; non-patent documents 1, 2; cited from earlier work
[4] = mouse, in vivo
Procedure: (§1) In the “APP-SwDI transgenic mice administrated with a feed containing cilostazol and taxifolin (n=3)”, as mentioned above, the blood concentration of this mouse was measured after administration of the feed containing cilostazol and taxifolin.

[5] = administration of cilostazol; cilostazol package insert; cited from earlier work
[6] = test system: APP-SwDI transgenic mice; assay: Carbon dioxide gas inhalation test (cerebral blood flow, laser speckle blood flow imager); format: in vivo, mouse; details: 12-month-old mice; for cerebral blood flow increase rate after 5% CO2 supply: feed from 4-week-old to 12-month-old, compared to APP-SwDI mice on normal feed; for time course of the cerebral blood flow increase rate after 5% CO2 supply: measured for 5 min after start of 5% CO2; for significance of the difference in cerebral blood flow increase rate versus normal feed group (repeated measurement and variance analysis): versus APP-SwDI mice on normal feed
Procedure: Analysis was performed by using 12-month-old C57BL/6J mice administered with a normal feed (n=4), APP-SwDI transgenic mice administered with a normal feed (n=10), APP-SwDI transgenic mice administered with a cilostazol-containing feed (n=4), APP-SwDI transgenic mice administered with a taxifolin-containing feed (n=5), and APP-SwDI transgenic mice administered with a feed containing cilostazol and taxifolin (n=7), totaling 30 mice. The feeds containing cilostazol, taxifolin, or cilostazol and taxifolin were administered from 4-week-old to 12-month-old. The concentration of cilostazol in the cilostazol-containing feed was 0.3 wt % and the concentration of taxifolin in the taxifolin-containing feed was 3 wt %. All the APP-SwDI transgenic mice used were homozygous male mice. The mice were anesthetized by intraperitoneal injection of α-chloralose and urethane. Then, endotracheal intubation was performed and the baseline of the cerebral blood flow was measured. Thereafter, 5% CO2 was supplied, and the cerebral blood flow was sequentially measured for 5 min. Relative increase rate was measured from the changes in the cerebral blood flow between the baseline and after 5% CO2 supply. The cerebral blood flow was measured by a laser speckle blood flow imager (OZ-2, OMEGAWAVE, INC.). FIG. 2 is a graph showing mean of relative increase rate of the cerebral blood flow after supply of 5% CO2 in the mice of each group. […] Error bars show standard error.

[7] = test system: APP-SwDI transgenic mice; assay: Immunohistochemistry for Aβ deposition on the cerebral blood vessel wall (hippocampus region); format: in vivo, mouse; details: 8-month-old mice, drug-containing feed from 4-week-old to 8-month-old; compared to APP-SwDI mice on normal feed
Procedure: The cilostazol-containing feed, the taxifolin-containing feed, and the feed containing cilostazol and taxifolin were administered from 4-week-old to 8-month-old. The concentration of cilostazol in the cilostazol-containing feed was 0.3 wt %, and the concentration of taxifolin in the taxifolin-containing feed was 3 wt %. The concentration of cilostazol and the concentration of taxifolin in the feed containing cilostazol and taxifolin were respectively 0.3 wt % and 3 wt %. All the APP-SwDI transgenic mice used were homozygous male mice. The 4-week-old APP-SwDI transgenic mice are considered to be in the initial stage of accumulation of Aβ in the brain blood vessel, i.e., the initial stage of cerebral amyloid angiopathy, and neuronal loss is considered to be not progressing much in this stage. The brain of an 8-month-old APP-SwDI transgenic mice was perfusion fixed using 4% para-formaldehyde, the removed brain was dehydration-treated for a whole day. A paraffin block of the fixed brain tissue was prepared, and the paraffin block was sliced in 6 microns by microtome. […] The hippocampus region was traced in a section which was cut 1 mm outside the midline, and the percentage of the Aβ accumulation area in the region of interest was measured by using image analysis software ImageJ (National Institutes of Health. USA). […]

[8] = test system: amyloid beta; details: administration of cilostazol; non-patent documents 1, 2; cited from earlier work
[9] = Blood concentration after administration of the feed containing cilostazol and taxifolin
Procedure: as §1

[10] = test system: APP-SwDI transgenic mice; assay: Survival curve (cumulative survival rate); format: in vivo, mouse; details: observation within 500 days after birth; slaughter not included
From the text: 1, 2014 to Nov. 30, 2015, were used to plot and analyze a survival curve of the mice.

[11] = test system: APP-SwDI transgenic mice; assay: Y-maze test (alternation response rate); format: in vivo, mouse; details: 13-month-old mice, feed from 4-week-old to 13-month-old; test for 8 minutes
Procedure: The cilostazol-containing feed, the taxifolin-containing feed, and the feed containing cilostazol and taxifolin were administered from 4-week-old to 13-month-old. The concentration of cilostazol in the cilostazol-containing feed was 0.3 wt %, and the concentration of taxifolin in the taxifolin-containing feed was 3 wt %. The concentration of cilostazol and the concentration of taxifolin in the feed containing cilostazol and taxifolin were respectively 0.3 wt % and 3 wt %. All the APP-SwDI transgenic mice used were homozygous male mice. In the Y-maze test, according to the general practice method, the alternation response rate was measured from the results of the test for 8 minutes. […] FIG. 7 is a graph showing an average alternation response rate of the mice of each group. Error bars show standard error.

[12] = test system: APP-SwDI transgenic mice; assay: Hair loss score (fighting); format: in vivo, mouse; details: 13-month-old mice; compared to APP-SwDI mice on normal feed
From the text: Hair loss occurs when mice fight. Thus, the extent of hair loss of each mouse was described in 4 grades of Grade: 0-3 and taken as a hair loss score. Almost normal state is Grade: 0 and hair loss over nearly whole body is Grade: 3. Less than 50% of the whole body surface was classified as Grade: 1 and not less than 50% was classified as Grade: 2.
The information of mice was concealed and two evaluators independently evaluated the hair loss score. Mean of each evaluation was taken as the hair loss score of the mice.
Error bars show standard error.

| SMILES | residence time in Zone-1 in the probe test (visuospatial memory) [1] | swimming time to reach the platform (visuospatial memory) [1] | alternation response in the Y-maze test [2] | reduction of cognitive function [3] | presence in the blood (compound or its metabolite) [4] | cerebral blood flow in the vertebral artery, internal carotid artery, cerebral cortex, hypothalamus and the like [5] | cerebral blood flow increase rate after 5% CO2 supply [6] | time course of the cerebral blood flow increase rate after 5% CO2 supply [6] | significance of the difference in cerebral blood flow increase rate versus normal feed group (repeated measurement and variance analysis) [6] | intracerebral Aβ accumulation amount [7] | intracerebral accumulation of amyloid beta [8] | presence in the blood (compound or its metabolite) [9] | death of mice (cumulative survival rate) [10] | alternation response rate (working memory) [11] | hair loss score (Grade 0-3) [12] |
| --- | --- | --- | --- | --- | --- | --- | --- | --- | --- | --- | --- | --- | --- | --- | --- |
| O=C1CCc2cc(OCCCCc3nnnn3C3CCCCC3)ccc2N1 [cilostazol, 6-[4-(1-cyclohexyl-1H-tetrazol-5-yl)butoxy]-3,4-dihydrocarbostyril] | visuospatial memory disorder improving effect of cilostazol was considered to be limited | visuospatial memory disorder improving effect of cilostazol was considered to be limited | increased | suppressed | detected in the blood | increases | increased | increased after a certain period of time after 5% CO2 supply | a significant difference was absent | significant decrease | suppressed | – | – | – | – |
| O=C1c2c(O)cc(O)cc2O[C@H](c2ccc(O)c(O)c2)[C@H]1O [taxifolin] | the same results as in the C57BL/6J mouse | the same results as in the C57BL/6J mouse | – | – | – | – | increased | rapidly increased after 5% CO2 supply | a significant difference was absent | significant decrease | – | detected in the blood | died clearly more than other mice | significant improvement was not observed | clearly severe hair loss |
